{
  "source": "paper PMC8311653",
  "about": "“Design, Synthesis, In Vitro and In Vivo Characterization of Selective NKCC1 Inhibitors for the Treatment of Core Symptoms in Down Syndrome” (Journal of Medicinal Chemistry, 2021)",
  "molecular_target": "T1, NKCC1 (Homo sapiens, UniProt P55011)",
  "T1 construct": "host or cells: HEK293",
  "T1 sequence (P55011 1-1212)": "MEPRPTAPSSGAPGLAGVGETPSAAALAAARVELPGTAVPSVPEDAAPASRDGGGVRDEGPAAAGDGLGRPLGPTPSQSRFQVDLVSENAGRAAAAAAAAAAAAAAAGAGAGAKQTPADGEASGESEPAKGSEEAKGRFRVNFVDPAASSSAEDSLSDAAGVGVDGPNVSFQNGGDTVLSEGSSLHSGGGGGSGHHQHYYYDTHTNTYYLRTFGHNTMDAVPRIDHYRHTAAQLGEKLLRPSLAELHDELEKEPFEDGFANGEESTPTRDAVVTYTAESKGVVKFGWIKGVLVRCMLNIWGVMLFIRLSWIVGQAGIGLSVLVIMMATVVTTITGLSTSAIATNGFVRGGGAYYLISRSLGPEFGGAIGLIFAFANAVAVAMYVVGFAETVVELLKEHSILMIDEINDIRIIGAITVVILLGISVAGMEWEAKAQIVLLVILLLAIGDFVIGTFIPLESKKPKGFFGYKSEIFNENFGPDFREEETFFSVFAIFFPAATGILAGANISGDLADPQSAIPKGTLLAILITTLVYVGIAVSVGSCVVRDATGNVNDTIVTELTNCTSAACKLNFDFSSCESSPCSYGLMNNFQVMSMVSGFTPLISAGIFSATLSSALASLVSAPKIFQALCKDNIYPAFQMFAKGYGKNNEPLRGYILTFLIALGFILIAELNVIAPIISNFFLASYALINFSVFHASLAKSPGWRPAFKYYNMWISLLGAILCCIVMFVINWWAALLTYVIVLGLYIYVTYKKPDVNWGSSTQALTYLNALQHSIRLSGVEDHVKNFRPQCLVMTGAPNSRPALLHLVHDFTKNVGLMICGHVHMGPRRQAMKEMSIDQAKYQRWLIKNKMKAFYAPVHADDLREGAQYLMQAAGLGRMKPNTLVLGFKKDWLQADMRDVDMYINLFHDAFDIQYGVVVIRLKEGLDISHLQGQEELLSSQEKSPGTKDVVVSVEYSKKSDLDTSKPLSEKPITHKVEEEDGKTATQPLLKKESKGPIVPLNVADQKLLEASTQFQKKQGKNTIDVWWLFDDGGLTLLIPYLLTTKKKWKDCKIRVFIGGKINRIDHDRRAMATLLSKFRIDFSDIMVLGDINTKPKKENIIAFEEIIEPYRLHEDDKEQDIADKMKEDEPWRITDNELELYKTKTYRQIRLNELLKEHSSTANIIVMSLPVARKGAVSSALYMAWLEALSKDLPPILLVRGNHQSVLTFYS",
  "experiment": "Cl- influx assay in NKCC1-transfected HEK293 cells",
  "assay_type": "cell-based",
  "settings": "for inhibition at 10 µM: HEK293, read-out: Inhibition 10 μM Cl- influx (%); for inhibition at 100 µM: HEK293, read-out: Inhibition 100 μM Cl- influx (%)",
  "method": "HEK293 cells were cultured in Dulbecco’s modified Eagle’s medium (DMEM) supplemented with 10% fetal bovine serum, 1% L-glutamine, 100 U/mL penicillin, and 100 μg/mL streptomycin and maintained at 37 °C in a 5% CO2 humidified atmosphere. To assess NKCC1 and NKCC2 activity (Cl^– influx assay), 3 million HEK cells were plated in a 10 cm cell-culture dish and transfected with a transfection mixture comprising 5 mL of DMEM, 4 mL of Opti-MEM, 8 μg of DNA plasmid coding for NKCC1 (PRK-NKCC1 obtained from Medical Research Council and the University of Dundee), NKCC2 (OriGene plasmid #RC216145) subcloned in PRK5 plasmid, or mock control (empty vector), together with 8 μg of a plasmid coding for the Cl^–-sensitive variant of the membrane-targeted fluorescent protein YFP, mbYFPQS (Addgene plasmid #80742),[53] and 32 μL of Lipofectamin 2000. To assess KCC2 activity (Tl influx assay), cells were transfected with 8 μg of KCC2[54] subcloned in the PRK5 plasmid or mock control (empty vector) and 16 μL of Lipofectamin 2000. After 4 h, the cells were collected and plated in 96-well black-walled, clear-bottomed plates at a density of 2.5 × 10^4. After 48 h, cells were used for the Cl^– or Tl influx assays. All reagents were purchased from Life Technologies, unless otherwise specified.\nTransfected cells were treated with 10 μM or 100 μM bumetanide (as positive controls), DMSO (as the negative control), or with each of our compounds in 100 μL/well of a Cl^–-free hypotonic solution (67.5 mM Na^+ gluconate, 2.5 mM K^+ gluconate, 15 mM HEPES pH 7.4, 50 mM glucose, 1 mM Na2HPO4, 1 mM NaH2PO4, 1 mM MgSO4, and 1 mM CaSO4). After 30 min of incubation, plates were loaded into a Victor 3V (PerkinElmer) multiplate reader equipped with an automatic liquid injector system, and fluorescence of Cl^–-sensitive mbYFPQS was recorded with excitation at 485 nm and emission at 535 nm. For each well, fluorescence was first recorded for 20 s of the baseline and for 60 s after delivery of a NaCl concentrated solution (74 mM final concentration in the assay well). Fluorescence of Cl^–-sensitive mbYFPQS is inversely correlated to the intracellular Cl^– concentration;[53] therefore, chloride influx into the cells determined a decrease in mbYFPQS fluorescence. To represent the fluorescent traces in time, we normalized the fluorescence value for each time point to the average of the fluorescence value of the first 20 s of the baseline (ΔF/F0). To quantify the average effects as represented by the bar plots, we expressed the decrease in fluorescence upon NaCl application as the average of the last 10 s of ΔF/F0 normalized traces. Moreover, for each experiment, to account for the contribution of Cl^– changes that were dependent on transporters/exchangers other than NKCC1 or NKCC2, we subtracted the value of the last 10 s of ΔF/F0 normalized traces obtained from mock-transfected cells (either control or treated) from the respective ΔF/F0 value obtained from the cells transfected with NKCC1 or NKCC2. We then presented in the figures all the data as a percentage of the fluorescence decrease versus the value of the control DMSO.",
  "data": [
    {"compound": "CN(C)S(=O)(=O)c1cc(C(=O)O)ccc1NCCCCCCCC(F)(F)F", "note": "[Compound 1, 3-(-N,N-Dimethylsulfamoyl)-4-(8,8,8-trifluorooctylamino)benzoic Acid]", "values": [
      {"measurement": "inhibition at 10 µM", "value": "37.1 ± 5", "unit": "%"},
      {"measurement": "inhibition at 100 µM", "value": "88.5 ± 1.7", "unit": "%"}
    ]},
    {"compound": "CCCCNc1cc(C(=O)O)cc(S(N)(=O)=O)c1Oc1ccccc1", "note": "[bumetanide, reference compound]", "values": [
      {"measurement": "inhibition at 10 µM", "value": "58.8 ± 5.6", "unit": "%"},
      {"measurement": "inhibition at 100 µM", "value": "71.7 ± 7", "unit": "%"}
    ]}
  ]
}
